Among the test systems are 786-0; A498; ACHN; CAKI-1; CCRF-CEM; COLO 205; HOP-62; HT-29; IGROV-1; Malme-3M; NCI-H460; NCI-H522; OVCAR-5; SF-268; SF-295; SF-539; SK-MEL-2; SK-OV-3; TK-10; UO-31.
Common to all, as to experiment: NCI-60 cell line screen, 48 h

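Step 1: Grow cells in 96-well plates. Step 2: Expose to compound for 48 hours at 5 concentrations. Step 3: Interpolate endpoints linearly; if unreached, use highest concentration. Abbreviation: GI50, concentration required for 50% inhibition of growth.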 The source made the active and inactive calls. Rule as the data show it: active = GI50 up to about 1.1 µM and inactive = higher.

For the molecule `NC(=S)N1N=C2CCCCCC[C@@H]2[C@H]1c1ccccc1`, the GI50 with 786-0 is 67 µM (inactive); in the experiment on A498, 75 µM (inactive); in the experiment on ACHN, 41.9 µM (inactive); with CAKI-1 it was > 100 µM (inactive); with CCRF-CEM it was 31.3 µM (inactive); in the experiment with COLO 205, 46.7 µM (inactive). Moreover, the GI50 in the experiment with HOP-62 is > 100 µM (inactive); with HT-29, 29.2 µM (inactive); in the experiment on IGROV-1, 63.2 µM (inactive); in the experiment on Malme-3M, 59.3 µM (inactive); in the experiment on NCI-H460 it was 35.2 µM (inactive); with NCI-H522 it was 21.2 µM (inactive). Besides, the GI50 with OVCAR-5 was > 100 µM (inactive); in the experiment on SF-268, > 100 µM (inactive); with SF-295, 35.3 µM (inactive); in the experiment on SF-539, > 100 µM (inactive); with SK-MEL-2, 64.6 µM (inactive); in the experiment on SK-OV-3 it was > 100 µM (inactive). The GI50 with TK-10 was 63 µM (inactive); in the experiment on UO-31 it was 16.7 µM (inactive).

As for `COC(=O)[C@@]12OC[C@]34C([C@@H](O)C1O)[C@@]1(C)CC(=O)C(OC(=O)CC(C)C(F)(F)F)=C(C)C1C[C@H]3OC(=O)[C@H](O)[C@H]42` (stereo not given in full), the GI50 in the experiment with 786-0 is 1.92 µM (inactive); in the experiment on A498, 0.156 µM (active); in the experiment on ACHN, 8.22 µM (inactive); with CAKI-1, 9.4 µM (inactive); in the experiment with CCRF-CEM it was 4.03 µM (inactive); in the experiment on COLO 205 it was 6.81 µM (inactive). The GI50 with HOP-62 was 15 µM (inactive); with HT-29 it was 6.92 µM (inactive); in the experiment on IGROV-1, 2.22 µM (inactive); in the experiment on Malme-3M, 0.215 µM (active); in the experiment with NCI-H460, 1.77 µM (inactive); in the experiment with NCI-H522, 3.46 µM (inactive). In addition, the GI50 is 19.6 µM (inactive) in the experiment with OVCAR-5; 6.85 µM (inactive) in the experiment with SF-268; 5.16 µM (inactive) in the experiment with SF-295; 1.51 µM (inactive) in the experiment with SF-539; 2.95 µM (inactive) with SK-MEL-2; 5.24 µM (inactive) in the experiment on SK-OV-3. The GI50 was 5.51 µM (inactive) in the experiment with TK-10 and 10.6 µM (inactive) in the experiment with UO-31.

Turning to `O=C(c1nc2ccc(Cl)cc2[nH]c1=O)C(O)c1cccc([N+](=O)[O-])c1` (stereo not given), the GI50 in the experiment with 786-0 was > 100 µM (inactive); in the experiment on A498 it was > 100 µM (inactive); in the experiment on ACHN it was 64.3 µM (inactive); with CAKI-1, > 100 µM (inactive); with CCRF-CEM, 5.06 µM (inactive); in the experiment with COLO 205 it was > 100 µM (inactive). For the same molecule, the GI50 with HOP-62 is > 100 µM (inactive); with HT-29 it was 16.3 µM (inactive); in the experiment with IGROV-1, > 100 µM (inactive); with Malme-3M it was > 100 µM (inactive); in the experiment on NCI-H460, > 100 µM (inactive); with NCI-H522, 16.2 µM (inactive). In addition, the GI50 with OVCAR-5 is > 100 µM (inactive); with SF-268, 33.3 µM (inactive); in the experiment on SF-295, > 100 µM (inactive); with SF-539, > 100 µM (inactive); with SK-MEL-2, > 100 µM (inactive); with SK-OV-3, > 100 µM (inactive). Also, the GI50 was > 100 µM (inactive) in the experiment on TK-10 and 80.9 µM (inactive) in the experiment with UO-31.

Consider `O=C(N/C(=C\c1cc(Cl)ccc1Cl)c1nc2cc(Cl)ccc2[nH]1)c1ccccc1`, for which the GI50 was 24.8 µM (inactive) in the experiment with 786-0; 21.4 µM (inactive) in the experiment on A498; 22.5 µM (inactive) in the experiment with ACHN; 22 µM (inactive) in the experiment with CAKI-1; 17 µM (inactive) in the experiment with CCRF-CEM; 18.8 µM (inactive) with COLO 205. Also, the GI50 is 18 µM (inactive) with HOP-62; 16.4 µM (inactive) in the experiment with HT-29; 13.1 µM (inactive) in the experiment with IGROV-1; 18.9 µM (inactive) in the experiment with Malme-3M; 15.1 µM (inactive) with NCI-H460; 12.4 µM (inactive) with NCI-H522. In addition, the GI50 is 21.2 µM (inactive) with OVCAR-5; 13.8 µM (inactive) with SF-268; 16.1 µM (inactive) in the experiment on SF-295; 20.1 µM (inactive) in the experiment on SF-539; 13.7 µM (inactive) with SK-MEL-2; 21.5 µM (inactive) with SK-OV-3. Besides, the figures for the GI50 with TK-10 and in the experiment with UO-31 were 3.78 µM (inactive) and 11.7 µM (inactive), respectively.

These data come from ChEMBL document CHEMBL1201862, “PubChem BioAssay data set” (2004).
